The text below walks through data of PMC5129256 (International Journal of Environmental Research and Public …, 2016).

One data set relates to laboratory mice. The note with it: mouse, in vivo; cited from earlier work.
The next data set relates to workers. Details: method as in ref 23 = [23]; 23. The MAK Collection for Occupational Health and Safety, Trimethylamine (MAK Value Documentation, 2004), Wiley Online Library Available online: http://onlinelibrary.wiley.com/doi/10.1002/3527600418. The note with it: cited from earlier work.
The subject of data set [1] is LMH cells. The note with it: PrestoBlue; for Viability of LMH Cells (%) ±S.E.M.: 24 h.
In data set [2] the test system is LMH cells.
Another data set in a line: in vitro. The conditions noted are these: chicken, Viability of LMH Cells (%) ± SD, MTT.

SMILES strings stand for the structures. Several values for one entry are separate records, joined by “and”; a condition that tells them apart may be missing. Equal entries are not always repeated. Where two headings read alike, the source gives them in different places.

For the compound `CN(C)C` [Trimethylamine], the RD50 with laboratory mice was 61 mL/m^3. Besides, the “toxic effects in workers” value with workers (concentrations of 20 mL/m^3) was “irritant to the mucous membranes and the eyes”; in the data set with workers (mean exposure concentrations of 5 mL/m^3 for 8 h) it was “no toxic effects”. Also, the “Viability of LMH Cells (%) ±S.E.M.” value with LMH cells [1] (0.004%) amounted to 72.4 ± 5.4%; in the data set with LMH cells [1] (0.008%), 54.3 ± 10.9%; in the data set on LMH cells [1] (0.016%) it was 51.9 ± 2.9%; in the data set on LMH cells [1] (0.063%) it was 36.6 ± 2.4%; in the data set on LMH cells [1] (0.125%), 17.1 ± 2.3 %; with LMH cells [1] (0.25%), 13.6 ± 2.3 %. Besides, the entries for the “Viability of LMH Cells (%) ±S.E.M.” value in the data set with LMH cells [1] (0.5%), with LMH cells [1] (1.0%) and with LMH cells [1] ([…]) were 7.1 ± 0.4 %, 6.0 ± 0.3 % and 38.9 ± 9.6%, respectively. Further, the “IC50 (%)” value was 0.02% with LMH cells [1] (24 h exposure, from dose-response curves); 0.08% in the data set on LMH cells [2] (MTT, 24 h exposure, from dose-response curves); 0.04% in the data set on LMH cells [2] (MTT, 48 h exposure, from dose-response curves). In the data set with LMH cells [2], the cytotoxicity result is reported as “above 95%”. Further, the “Viability of LMH Cells (%) ± SD” value is recorded as 95.5 ± 1.9% with LMH cells [2] (MTT, 0.004%, 24 h); 92.5 ± 5.5% in the data set with LMH cells [2] (MTT, 0.004%, 48 h); 100.1 ± 3.1% in the data set on LMH cells [2] (MTT, 0.008%, 24 h); 84.9 ± 8.1% with LMH cells [2] (MTT, 0.008%, 48 h); 103.6 ± 2.2% with LMH cells [2] (MTT, 0.016%, 24 h); 72.8 ± 6.5 % in the data set with LMH cells [2] (MTT, 0.016%, 48 h). Also, the “Viability of LMH Cells (%) ± SD” value was determined as 69.7 ± 5.9 % in the data set with LMH cells [2] (MTT, 0.063%, 24 h); 2.8 ± 0.2 % in the data set on LMH cells [2] (MTT, 0.063%, 48 h); 8.6 ± 0.5 % in the data set with LMH cells [2] (MTT, 0.125%, 24 h); 5.4 ± 0.3 % in the data set with LMH cells [2] (MTT, 0.125%, 48 h); 7.6 ± 0.3 % in the data set on LMH cells [2] (MTT, 0.25%, 24 h); 4.1 ± 0.3 % in the data set on LMH cells [2] (MTT, 0.25%, 48 h). Further, the “Viability of LMH Cells (%) ± SD” value with LMH cells [2] (MTT, 0.5%, 24 h) was found to be 7.9 ± 0.2 %; in the data set on LMH cells [2] (MTT, 0.5%, 48 h) it was 3.8 ± 0.3 %; in the data set on LMH cells [2] (MTT, 1.0%, 24 h) it was 7.0 ± 0.1 %; in the data set on LMH cells [2] (MTT, 1.0%, 48 h) it was 2.5 ± 0.3 %; with LMH cells [2] (MTT, […], 24 h), 97.8 ± 1.8%; in the data set with LMH cells [2] (MTT, […], 48 h), 61.7 ± 8.9 %.

Turning to `c1ccc2[nH]ccc2c1` [Indole], the viability is 88.6 ± 0.6% in the data set “in vitro” (0.0004%, 24 h); 90.7 ± 1.3% in “in vitro” (0.0004%, 72 h); 95 ± 0.2% in “in vitro” (0.0008%, 24 h); 94.3 ± 2.4% in the data set “in vitro” (0.0008%, 72 h); 97.4 ± 0.2% in “in vitro” (0.0016%, 24 h); 94.8 ± 2.1% in the data set “in vitro” (0.0016%, 72 h). In addition, the viability in “in vitro” (0.0063%, 24 h) was 103 ± 0.4%; in “in vitro” (0.0063%, 72 h), 109 ± 2.5%; in “in vitro” (0.0125%, 24 h), 95.5 ± 0.8%; in the data set “in vitro” (0.0125%, 72 h), 103 ± 1.2%; in the data set “in vitro” (0.025%, 24 h), 102.4 ± 0.2%; in the data set “in vitro” (0.025%, 72 h), 73.5 ± 2%. Also, the viability in “in vitro” (0.05%, 24 h) turned out to be 94.3 ± 0.6%; in the data set “in vitro” (0.05%, 72 h) it was 73 ± 1.7%; in the data set “in vitro” (0.1%, 24 h), 82.2 ± 0.2%; in “in vitro” (0.1%, 72 h), 60.3 ± 1.6%; in the data set “in vitro” ([…], 24 h), 100 ± 0.4%; in the data set “in vitro” ([…], 72 h) it was 104 ± 1.9%. The “cytotoxicity (in words)” value with LMH cells [2] is recorded as “not cytotoxic”. Moreover, the “IC50 (%)” value in the data set with LMH cells [2] (MTT, 72 h exposure, from dose-response curves) amounted to 0.06%. In the data set on LMH cells [2] (chicken), this compound returned a cytotoxicity of 39.7%.

Regarding `CNC` [Dimethylamine], the “RD50 (concentration which reduces the rate of respiration by 50%)” value in the data set on laboratory mice was 70 mL/m^3. In the data set on LMH cells [2], the “IC50 (%)” value is listed as 0.06%; the IC80 is 0.04% and 0.04 * %; the “Viability of LMH Cells (%) ± SD” value is recorded as 20.5 ± 0.1 %; the cytotoxicity result was “above 80%”.

On to `CCCC(=O)O` [Butyric acid], for which the viability at 24 h, 0.006 % in the data set “in vitro” (LMH chicken liver hepatocellular carcinoma cells, 0.006%, 24 h) is 100 ± 0.7%. In the data set “in vitro” (LMH chicken liver hepatocellular carcinoma cells, 0.006%, 72 h), the viability at 72 h, 0.006 % is 98.2 ± 2.1%. The viability at 24 h, 0.013 % in “in vitro” (LMH chicken liver hepatocellular carcinoma cells, 0.013%, 24 h) was found to be 100 ± 0.4%. Besides, the viability at 72 h, 0.013 % in “in vitro” (LMH chicken liver hepatocellular carcinoma cells, 0.013%, 72 h) was found to be 95.7 ± 2.1%. In “in vitro” (LMH chicken liver hepatocellular carcinoma cells, 0.025%, 24 h), the viability at 24 h, 0.025 % was determined as 100 ± 0.3%. Further, in “in vitro” (LMH chicken liver hepatocellular carcinoma cells, 0.025%, 72 h), the viability at 72 h, 0.025 % turned out to be 86 ± 4.8%. The viability at 24 h, 0.063 % in “in vitro” (LMH chicken liver hepatocellular carcinoma cells, 0.063%, 24 h) was determined as 68.9 ± 1.4%. Also, in the data set “in vitro” (LMH chicken liver hepatocellular carcinoma cells, 0.063%, 72 h), the viability at 72 h, 0.063 % was found to be 66.5 ± 3.2%. In “in vitro” (LMH chicken liver hepatocellular carcinoma cells, 0.125%, 24 h), the viability at 24 h, 0.125 % turned out to be 65 ± 0.8%. Moreover, the viability at 72 h, 0.125 % in “in vitro” (LMH chicken liver hepatocellular carcinoma cells, 0.125%, 72 h) turned out to be 46.4 ± 3.2%. Also, the viability at 24 h, 0.25 % in the data set “in vitro” (LMH chicken liver hepatocellular carcinoma cells, 0.25%, 24 h) was determined as 59.4 ± 1.3%. Also, the viability at 72 h, 0.25 % in the data set “in vitro” (LMH chicken liver hepatocellular carcinoma cells, 0.25%, 72 h) is 31.1 ± 2%. The viability at 24 h, 0.5 % in the data set “in vitro” (LMH chicken liver hepatocellular carcinoma cells, 0.5%, 24 h) was 25.1 ± 0.7%. Moreover, in the data set “in vitro” (LMH chicken liver hepatocellular carcinoma cells, 0.5%, 72 h), the viability at 72 h, 0.5 % was found to be 7.6 ± 0.7%. Moreover, the viability at 24 h, […] in the data set “in vitro” (LMH chicken liver hepatocellular carcinoma cells, […], 24 h) amounted to 89.3 ± 2%. Also, the viability at 72 h, […] in the data set “in vitro” (LMH chicken liver hepatocellular carcinoma cells, […], 72 h) was found to be 67.2 ± 4.9%. Besides, the “IC50 (%)” value with LMH cells [2] was 0.32% and 0.11%. The compound further yielded a cytotoxicity with LMH cells [2] (MTT, 0.5%, 72 h) of 92.4%. The compound also yielded a dose-dependent inhibition reached with LMH cells [2] (MTT, 72 h exposure, concentrations above 0.0125%) of 92%.
